This is an account of results in paper doi:10.1101/2025.07.21.666047v1 (biorxiv, 2025).

Assay [1] addresses CD28:B7.1 (immobilized CD28 and biotinylated B7.1) (Homo sapiens, UniProt P10747). Nature of the assay: competitive ELISA, chemiluminescent. The format is binding. (In an ELISA, binding on a coated surface is turned into a signal by an enzyme label.)
In assay [2] the target is recombinant human CD28 protein (extracellular domain, His-tagged) (Homo sapiens, UniProt P10747). The assay can be described thus: spectral shift. The format is binding.
recombinant human CD28 protein (extracellular domain, His-tagged), sequence (P10747 19-152): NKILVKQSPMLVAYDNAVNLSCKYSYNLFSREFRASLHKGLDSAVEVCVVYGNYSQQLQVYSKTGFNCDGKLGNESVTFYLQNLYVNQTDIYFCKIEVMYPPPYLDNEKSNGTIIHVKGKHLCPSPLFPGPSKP

The structures appear in SMILES notation.

CD28:B7.1 (immobilized CD28 and biotinylated B7.1), sequence (P10747 19-152 limits assumed): as the sequence (P10747 19-152) above

With `NC(=O)c1ccc(N2CCN(C(=O)c3ncc4n3CCCC4)CC2)cc1` [Z2770993038], the IC50 (usually the point on the concentration scale where inhibition reaches its midpoint) in assay [1] is 32.9 ± 5.74 µM. The Kd (as a rule, the free concentration of one partner at which half of the binding sites on the other are occupied at equilibrium, for simple one-to-one binding) in assay [2] was determined as 43.3 ± 16.4 µM.
Turning to `COc1ccc(C2CC(C)N(CC(=O)NCC(F)(F)F)C2)cc1` (centres unmarked) [Z3889890124], in assay [2], the Kd came to 49.5 ± 15.3 µM.
`CC(C)OC1CCCN(C(=O)c2ccc(-c3nn[nH]n3)s2)C1` (centres unmarked) [Z4390463985]: the IC50 in assay [1] was 56.3 ± 11.2 µM. In assay [2], the Kd came to 45.8 ± 12.1 µM.
